# Patent US20090202565A1, “TORC POLYNUCLEOTIDES AND POLYPEPTIDES AND METHOD OF USE” (priority 2004, published 2009)
# Where no end group is shown, it is not given here.
# Tests used:
# TORC3-eGFP = TORC3-eGFP nuclear translocation in HEK293 cells, fluorescence microscopy; type: cell-based, human; conditions: for translocation of TORC3-eGFP to the nucleus: 45 min, 10 nM LMB, 10 uM ionomycin, or both
# Procedure: (§1) HEK293 cells are transfected with either pCMV-TORC1-eGFP, pCMV-TORC2-eGFP or pCMV-TORC3-eGFP linearized with AseT restriction endonuclease and stable integrants are selected with 700 ug/ml geneticin generating a population of cells that express TORC-eGFP. These are referred to as 293hTORC1, 293hTORC2 or 293hTORC3 cells, respectively. All of the stable TORC-eGFP cell-lines are subjected to fluorescence activated cell sorting to remove non-fluorescing cells.
# (§2) The localization of human TORC2 and TORC3 is also examined. Both HeLa cells and HEK293 cells are transfected with either pCMV-TORC2-eGFP or pCMV-TORC3-eGFP.
# (§3) In order to assess this possibility, HeLa cells stably expressing TORC1-eGFP are exposed to either no treatment (FIG. 5, panel A), 50 uM forskolin and 100 uM IBMX (panel B), or 1 mM db-cAMP (panel C) for 2 hours. […] Similarly, HEK293 cells stably expressing TORC2-eGFP (FIG. 5, panels D and E) or TORC3-eGFP (panels F and G) are either untreated (panels D and F) or treated with 25 uM forskolin for 1 hour (panels E and G).
# TORC1-eGFP [1] = experiment: TORC1 (FLAG-TORC1 / TORC1-eGFP) nuclear translocation in HeLa cells, fluorescence microscopy; type: cell-based, human
# Procedure: Generation of stable TORC-eGFP cell lines. HeLa cells are transfected with pCMV-TORC1-eGFP and stable integrants are selected with 700 ug/ml geneticin. A single colony that expressed TORC1-eGFP is isolated and expanded (HhTORC1eGFP cells). […]
# HeLa cells are transfected with FLAG-TORC1 (FIG. 1, panels A and B) or TORC1-eGFP (panels C and D). Cells are either untreated (panels A and C) or treated with 10 nM leptomycin-B (LMB), a fungal inhibitor of CRM1 mediated nuclear export of proteins, for 90 min (panels B and D). FLAG-tagged protein is visualized by immunofluorescence while eGFP-tagged proteins are directly visualized by fluorescence. […] Since a variety of signal transduction proteins are regulated by either nuclear export or stimulus induced import, the localization of TORC1 is examined after treatment with LMB. […]
# TORC2-eGFP = TORC2-eGFP nuclear translocation in HEK293 cells, fluorescence microscopy; type: cell-based, human; conditions: for translocation of TORC2-eGFP to the nucleus: 45 min, 10 nM LMB, 10 uM ionomycin, or both
# Procedure: as §1, §2, §3
# TORC1-eGFP [2] = experiment: TORC1-eGFP nuclear translocation in stably expressing HEK293 cells; type: cell-based, human; conditions: stable HEK293; for translocation of TORC1-eGFP to the nucleus: 45 min, 10 nM LMB, 10 uM ionomycin, or both; for TORC1-eGFP fluorescence localization: 1 hr, 10 nM LMB alone, 160 nM isoproterenol alone, or isoproterenol plus LMB
# Procedure: as §1
# To assess whether TORC translocation is induced by stimulation of endogenous G-protein coupled receptors (GPCRs), HEK293 cells stably expressing various TORC-eGFP fusions are treated with isoproterenol, a β2-adrenergic receptor agonist, for 1 hr.
# CRE-driven luciferase = experiment: CRE-dependent luciferase reporter in HeLa and HeLa::TORC1-eGFP cells; type: cell-based; conditions: 18 hours; for activation of CRE-driven luciferase in naïve HeLa cells: 5 uM ionomycin, 10 uM PMA
# From the text: To determine the effect of TORC1 over-expression and localization on gene expression, CRE-dependent transcription is compared in untransfected HeLa cells and HeLa cells stably expressing TORC1-eGFP using a luciferase reporter containing a CRE-dependent promoter.
# dTORC-eGFP = dTORC-eGFP translocation in Drosophila larval salivary glands; type: cell-based; conditions: 5 uM ionomycin 1 hour; 100 uM db-cAMP 4 hours
# Procedure: Drosophila Methods. The Gal4 responder construct, UAS-GFP-TORC, is created by PCR cloning the eGFP gene from the pEGFP—N1 vector (Clontech # 6085-1) and the dTORC gene from Drosophila genomic DNA into the pUAST vector (Brand and Perrimon, 1993). This construct is injected into Drosophila embryos by P-element germline transformation to create transgenic lines (Rubin and Spradling, 1982). To induce expression of the fusion protein, flies containing UAS-GFP-TORC are crossed to flies containing the HS-Gal4 construct obtained from the Bloomington Stock Center, University of Indiana, Bloomington, Ind. The larvae are heat-shocked at […] and salivary glands from late third instar larvae were dissected in PBS, placed in Sang M3 media (Sigma #S3652) containing various chemical treatments in a 96-well plate. The glands are visualized using the Nikon Eclipse TE2000-E fluorescent microscope. Images are taken at a 100× magnification.
# A fusion of eGFP and the Drosophila TORC (dTORC) protein is generated. […] Salivary glands dissected from transgenic larvae expressing the dTORC fusion protein are examined by microscopy. dTORC-eGFP is localized in the cytoplasm in all of the cells in the gland (FIG. 17, panels A and D). […] Thus, the localization of TORC in Drosophila is regulated by cAMP and calcium, just as in human cells. […]
# CRE-luciferase [3] = experiment: CRE-luciferase reporter with dominant negative TORC1(1-44)-eGFP in HeLa cells; type: cell-based
# From the text: The siRNA results (Example 12) are complicated by the need to use multiple siRNAs and to block multiple TORCs. In order to efficiently block activity of all TORC proteins more readily, a dominant interfering TORC protein is designed which fuses the highly conserved 44 amino-acid CREB-binding domain of TORC1 to eGFP (T1-44eGFP). To block activity of all TORC proteins efficiently, a dominant interfering protein that should specifically block the ability of all TORC's to interact with CREB1 is designed. The CREB1 interaction domain of TORC proteins is present in the first 44 amino acids of TORC1. The N-terminal 44 amino acids, representing the first exon of the TORC1 gene, is nearly 100% conserved in virtually all mammalian, C. elegans and Drosophila TORC proteins, yet has virtually no homology or similarity to any other proteins (Tourgenko et al., 2003). […] HeLa cells are transfected with either the eGFP control or TORC1(1-44)-eGFP with either CRE-luciferase (FIG. 16, panel A) or NFKB-luciferase (panel B) prior to stimulation with 50 uM forskolin/100 uM IBMX or 5 uM ionomycin. In panel C, HEK293 cells are transiently transfected with CRE-luciferase and the β2-adrenergic receptor (β2AR) in combination with either the empty CMV vector, eGFP, or TORC1(1-44)-eGFP fusion and exposed to isoproterenol for 18 hours. […] Thus blockade of TORC function also prevents CRE-activation through a Gs-linked GPCR using isoproterenol.
# NF-kappaB reporter = experiment: NFKB-luciferase reporter with dominant negative TORC1(1-44)-eGFP in HeLa cells; type: cell-based
# From the text: (§4) The siRNA results (Example 12) are complicated by the need to use multiple siRNAs and to block multiple TORCs. In order to efficiently block activity of all TORC proteins more readily, a dominant interfering TORC protein is designed which fuses the highly conserved 44 amino-acid CREB-binding domain of TORC1 to eGFP (T1-44eGFP). To block activity of all TORC proteins efficiently, a dominant interfering protein that should specifically block the ability of all TORC's to interact with CREB1 is designed. The CREB1 interaction domain of TORC proteins is present in the first 44 amino acids of TORC1. The N-terminal 44 amino acids, representing the first exon of the TORC1 gene, is nearly 100% conserved in virtually all mammalian, C. elegans and Drosophila TORC proteins, yet has virtually no homology or similarity to any other proteins (Tourgenko et al., 2003). […] HeLa cells are transfected with either the eGFP control or TORC1(1-44)-eGFP with either CRE-luciferase (FIG. 16, panel A) or NFKB-luciferase (panel B) prior to stimulation with 50 uM forskolin/100 uM IBMX or 5 uM ionomycin. In panel C, HEK293 cells are transiently transfected with CRE-luciferase and the β2-adrenergic receptor (β2AR) in combination with either the empty CMV vector, eGFP, or TORC1(1-44)-eGFP fusion and exposed to isoproterenol for 18 hours. […]
# CRE-luciferase [4] = experiment: CRE-luciferase with β2-adrenergic receptor and isoproterenol in HEK293 cells; type: cell-based; conditions: HEK293 transiently transfected; isoproterenol 18 hours
# From the text: as §4
# [5] = transfected HEK293, LMB treatment
# [6] = stable HEK293, 160 nM isoproterenol alone, 1 hr
molecule,measurement,setting,value
C[C@H](CCC(=O)O)C[C@H](C)C[C@H](C)C(=O)/C=C(\O)[C@H](C)C[C@H](C)C/C=C/[C@@H](C)[C@@H](O)[C@@H](C)[C@@H](O)C[C@@H]1CC[C@@](C)([C@H]2CC[C@@](C)([C@@H](C)O)O2)O1 [ionomycin],translocation of TORC3-eGFP to the nucleus,TORC3-eGFP; stable HEK293,weak or no translocation to the nucleus
same,accumulation of TORC1-eGFP in the nucleus in response to calcium,"TORC1-eGFP [1]; HeLa stable TORC1-eGFP, 1 uM ionomycin or 10 uM CPA, 1 hour",potently induce accumulation of the TORC1-eGFP in the nucleus
same,translocation of TORC2-eGFP to the nucleus,TORC2-eGFP; stable HEK293,weak or no translocation to the nucleus
same,translocation of TORC1-eGFP to the nucleus,TORC1-eGFP [2],weak or no translocation to the nucleus
same,activation of CRE-driven luciferase in naïve HeLa cells,CRE-driven luciferase,modest level of activation
same,translocation of dTORC-eGFP into the nucleus,dTORC-eGFP,induced translocation of dTORC-eGFP into the nucleus
"CCCCCCCCCCCCCC(=O)O[C@@H]1[C@@H](C)[C@@]2(O)[C@@H](C=C(CO)C[C@]3(O)C(=O)C(C)=C[C@@H]23)[C@@H]2C(C)(C)[C@]12OC(C)=O [PMA, Phorbol 12-myristate 13-acetate]",accumulation of TORC1-eGFP in the nucleus in response to PMA,"TORC1-eGFP [1]; HeLa stable TORC1-eGFP, 10 uM PMA, 1 hour",induced TORC1-eGFP to accumulate in the nucleus
same,activation of CRE-driven luciferase in naïve HeLa cells,CRE-driven luciferase,modest level of activation
"CCC(=C/[C@H](C)C/C=C/C(C)=C/[C@@H](C)C(=O)[C@@H](C)[C@H](O)[C@@H](C)C/C(C)=C/C(=O)O)/C=C/[C@@H]1OC(=O)C=C[C@@H]1C [LMB, Leptomycin B]",time until TORC3-eGFP becomes predominantly nuclear following LMB exposure,TORC3-eGFP; stable HEK293,approximately 90 min
same,translocation of TORC3-eGFP to the nucleus,TORC3-eGFP; stable HEK293,weak or no translocation to the nucleus
same,nuclear accumulation of TORC3-eGFP,TORC3-eGFP; [5],induces accumulation of both proteins in the nuclei
same,time to near complete TORC1 translocation following LMB exposure,"TORC1-eGFP [1]; HeLa cells, data not shown",less than 30 minutes
same,subcellular localization of TORC1 fusion proteins,"TORC1-eGFP [1]; HeLa transfected with FLAG-TORC1 or TORC1-eGFP, 10 nM LMB, 90 min",present predominantly in the nucleus
same,"TORC1-eGFP translocation (nuclear-cytoplasmic fluorescence difference), positive control of cDNA screen","TORC1-eGFP [1]; HeLa, 384-well plates, Cellomics ArrayScan II",detected in virtually all control wells
same,time until TORC2-eGFP becomes predominantly nuclear following LMB exposure,TORC2-eGFP; stable HEK293,≤ 120 min
same,translocation of TORC2-eGFP to the nucleus,TORC2-eGFP; stable HEK293,weak or no translocation to the nucleus
same,nuclear accumulation of TORC2-eGFP,TORC2-eGFP; [5],induces accumulation of both proteins in the nuclei
same,translocation of TORC1-eGFP to the nucleus,TORC1-eGFP [2],weak or no translocation to the nucleus
same,TORC1-eGFP fluorescence localization,TORC1-eGFP [2],eGFP fluorescence originating from the cytoplasm
same,induction of CRE-driven luciferase,"CRE-driven luciferase; 10 nM LMB, naïve HeLa vs HeLa::TORC1-eGFP",significant induction only in the HeLa::TORC1-eGFP cells
"CCCC(=O)Nc1ncnc2c1ncn2[C@@H]1O[C@@H]2COP(=O)(O)O[C@H]2[C@H]1OC(=O)CCC [db-cAMP, dibutyryl cyclic-AMP]",translocation of TORC1-eGFP on raising intracellular cAMP,"TORC1-eGFP [1]; HeLa stable TORC1-eGFP, 50 uM forskolin and 100 uM IBMX, or 1 mM db-cAMP, 2 hours",partial translocation of TORC1-eGFP
same,translocation of dTORC-eGFP into the nucleus,dTORC-eGFP,induced translocation of dTORC-eGFP into the nucleus
T1(1-44)eGFP: dominant interfering protein fusing the 44 amino-acid CREB-binding domain of TORC1 to eGFP (MATSNNPRKFSEKIALHNQKQAEETAAFEEVMKDLSLTRAARLQ; also: fused to eGFP),effect on CRE activation through forskolin/IBMX or ionomycin and PMA,"CRE-luciferase [3]; HeLa, 50 uM forskolin/100 uM IBMX or 5 uM ionomycin",potently blocks CRE activation
same,effect on activity of all three TORCs on CRE-activation,CRE-luciferase [3]; data not shown,inhibited
same,effect on enhanced CRE-response in HhTORC1 cells,CRE-luciferase [3]; data not shown,effectively blocked
same,effect on activation of NF-kappaB reporter by ionomycin and PMA,NF-kappaB reporter,no effect on activation of an NF-kappaB reporter
same,effect on CRE-luciferase induction by β2AR and isoproterenol,CRE-luciferase [4],strongly inhibits CRE-luciferase induction
"CC(C)NCC(O)c1ccc(O)c(O)c1 (stereo not drawn) [isoproterenol, Isoproterenol]",TORC3-eGFP fluorescence localization,TORC3-eGFP; [6],fluorescence from the nucleus occurs
same,TORC2-eGFP fluorescence localization,TORC2-eGFP; [6],fluorescence from the nucleus occurs
same,TORC1-eGFP fluorescence localization,TORC1-eGFP [2],eGFP fluorescence originating from the cytoplasm
